According to US20110158909A1, “Cationic Contrast Agents and Methods of Use Thereof” (Trustees of Boston University, priority 2008, published 2011):
Where two headings read alike, the source gives them in different places.

How the values were obtained:
[1] = CT imaging of normal and trypsin degraded osteochondral plugs with anionic and cationic contrast agent; design: species or system bovine; details: for x-ray attenuation coefficient, normal vs trypsin degraded osteochondral plugs: 16 mg/mL bound iodine, overnight at 4° C., p<0.05
Method: In one experiment, eight osteochondral plugs (7 mm diameter) were harvested immediately after slaughter from the patella-femoral joint of three mature cows using a water-cooled, cylindrical diamond tipped cutter (See FIG. 2a for an example picture of osteochondral plugs). The plugs were divided into a normal cartilage group (n=4) and a trypsin degraded cartilage group (n=4). The osteochondral plugs of the degraded cartilage group were immersed in trypsin (2 mg/mL in 50 mM Tris, 20 mM CaCl2, pH=7.8) and incubated for 2 hours at 37° C.
All the plugs were immersed overnight in Cysto Conray II, an anionic, triiodinated contrast agent, diluted in PBS to 16 mg/mL of bound iodine at 4° C. to allow sufficient time for the contrast agent to diffuse into the cartilage. Sequential, 100μ thick, transaxial pQCT images were obtained at 70μ in plane resolution and 300μ inter-slice distance (XCT Research SA+, Stratec) for all the osteochondral plugs. The CT data were imported into Analyze™ (BIR, Mayo Clinic) to create reconstructed 3D images of the osteochondral plugs (see FIG. 2b for a representative image representing one slice of the reconstructed 3D image). A user specified contour was employed to segment the cartilage from the bone. The mean x-ray attenuation coefficient for cartilage was obtained by averaging over all pixels contained in cartilage on the transaxial CT images. The osteochondral plugs were then washed in PBS to remove the anionic contrast agent. The plugs were then re-immersed in the cationic triiodinated contrast agent at the same dilution and conditions used for the anionic contrast agent and repeat CT imaging of the osteochondral plugs was performed.
The GAG content of the articular cartilage was measured using a dimethylmethylene blue (DMMB) assay. A razor blade was used to separate the articular cartilage from the subchondral bone and the cartilage was stored at −20° C. After weighing the hydrated cartilage, it was lyophilized and weighed dry. The cartilage was digested with papain at 65° C. for 24 hours and diluted 10 to 100 times for the assay. Accounting for the dilution, the total GAG weight per mg cartilage dry weight was calculated.
The GAG content measured directly; the x-ray attenuation measured by CT for the anionic and cationic contrast agents were compared for the normal and trypsin degraded articular cartilage plugs using 1-way.ANOVA. Further, the x-ray attenuation measured by CT for both the anionic and cationic contrast agents was expressed as a function of the measured GAG content. The slopes of these relationships were compared to assess the relative sensitivity of these contrast agents to measure differences in the GAG content of articular cartilage.

[2] = Passive diffusion of contrast agents into and out of articular cartilage, quantitative CT; design: species or system bovine; details: for average CT attenuation: time=5 h to time=24 h of immersion in contrast agent, 27 mg iodine/mL, pH 6.8, n=4
Method: The diffusion characteristics of the contrast agents were evaluated using bovine osteochondral plugs. Two cationic contrast agents, 4 and 6, were compared to a commercially-available singly-charged anionic contrast agent, iothalamate (Cysto Conray II®). Three groups of osteochondral plugs were prepared (n=4)—one for each contrast agent. The plugs were immersed in aqueous contrast agent solution (27 mg of organically-bound iodine/mL, pH 6.8) and removed at 1, 2, 4, 6, 18, and 24 h for imaging using quantitative CT (QCT). Following diffusion into the cartilage, the osteochondral plugs were immersed in saline solution and imaged at the same time points to monitor the diffusion of the contrast agent out of the cartilage. Articular cartilage has a natural anisotropic distribution of GAGs, with low GAG content in the superficial zone and higher GAG content in the middle and deep zones. This anisotropic distribution of GAG was reflected by the variation in x-ray attenuation in the CT images (FIG. 5B). […] In order to determine the initial rates of diffusion into the cartilage tissue, linear regression analyses were applied to the contrast-enhanced CT attenuation data for each osteochondral plug after immersion for 0, 1, and 2 h (Table 1). The slope represents the average rate of diffusion for each contrast agent. Cationic contrast agents 4 and 6 diffuse into cartilage 1.77 and 1.65 times faster, respectively, than the anionic agent iothalamate (FIG. 6).

[3] = Cartilage degradation study (chondroitinase ABC): CT attenuation vs GAG content by DMMB assay; design: species or system bovine; details: for slope of linear regression, average CT intensity vs GAG content: GAG content as 100×(mg of GAG)/(mg of hydrated cartilage)
Excerpt: In order to evaluate the ability of the contrast agents to diagnose an OA state, the hyaline cartilage of the osteochondral plugs was enzymatically degraded to mimic the GAG depletion observed in early OA by exposing the hyaline cartilage to different concentrations of the polysaccharide-specific hydrolase, chondroitinase ABC. After degradation, the same set of osteochondral plugs was exposed to each contrast agent consecutively, enabling a direct comparison of the resulting data. The average CT attenuation for each group was plotted as a function of the GAG content obtained by the DMMB assay and subjected to linear regression analysis (FIG. 7A). […] The variation in CT attenuation effected by diffusion of cationic contrast agent 6, with four positive charges, into the hyaline cartilage accounted for 79% of the variation in cartilage GAG, whereas the variation in CT attenuation effected by diffusion of cationic contrast agent 4, with a single positive charge, accounted for 56% of the variation in cartilage GAG. In comparison, the diffusion of anionic contrast agent iothalamate with a single negative charge accounted for 52% of the variation in cartilage GAG. The slope of the regression line represents the sensitivity of contrast enhanced CT attenuation of cartilage to changes in the GAG content of the cartilage. The cationic contrast agents were more sensitive (4: 1.4× and 6: 5.3×) to changes in cartilage GAG content than the anionic contrast agent iothalamate.

[4] = microCT imaging of intact rabbit femur; details: magnified view of cartilage surface, FIG. 8B
Excerpt: Contrast agent 6 was chosen for use in a rabbit femur study to highlight the ability of the cationic contrast agent to portray the variation in cartilage GAG concentration and cartilage thickness in an intact rabbit femur. […] The contrast-enhanced CT image was able to define the anisotropic distribution of GAG through the depth of the articular cartilage. […] The contrast enhanced CT image of the femur can also be used to determine the variable thickness of the articular cartilage. […] Cartilage thickness is greater at the femoral groove than at the condyles.

[5] = 2 h immersion in contrast agent

Structure (SMILES): NCCNC(=O)c1c(I)c(N)c(I)c(C(=O)NCCN)c1I [contrast agent 2]
- x-ray attenuation coefficient, normal vs trypsin degraded osteochondral plugs [1]: greater than that for the trypsin degraded osteochondral plugs
- sensitivity of relative change in x-ray attenuation to change in GAG content, compared to anionic contrast agent ([1]; normal vs trypsin degraded plugs): 4.3 ×
- enhancement of CT images of cartilage tissue ([1]; osteochondral plugs): capable of enhancing CT images of the cartilage tissue

Structure (SMILES): CNC(=O)c1c(I)c(NC(C)=O)c(I)c(C(=O)O)c1I [iothalamate, reference compound]
- x-ray attenuation coefficient, normal vs trypsin degraded osteochondral plugs [1]: inverse relation
- CT attenuation of cartilage in CT images [2, 5]: very little change
- reflection of anisotropic GAG distribution (deep vs superficial zone) in CT images ([2]; FIG. 5B): less sensitive to subtle changes in the GAG content
- CT attenuation of cartilage in CT images ([2]; after 2 h of immersion in saline): began to decline
- removal from cartilage on immersion in saline ([2]; after immersion in saline for 6 hours): almost completely removed
- average CT attenuation [2]: 500-600
- relation of CT attenuation to GAG content [3]: indirectly related
- variation in cartilage GAG accounted for by variation in CT attenuation [3]: 52%
- slope of linear regression, average CT intensity vs GAG content [3]: negative slope
- level of CT attenuation in CT images of degraded and undegraded plugs ([3]; after equilibrium in contrast agent, FIG. 7B): low levels of CT attenuation

Structure (SMILES): NCCNC(=O)c1c(I)cc(I)c(N)c1I [contrast agent 6]
- CT attenuation of cartilage in CT images [2, 5]: medium levels
- CT attenuation of cartilage in CT images ([2]; after 24 h in saline): still showed medium levels of CT attenuation
- x-ray attenuation higher compared to iothalamate ([2]; after equilibration (24 h)): ~60%
- initial rate of diffusion into cartilage relative to iothalamate ([2]; linear regression of CT attenuation at 0, 1 and 2 h): 1.65 times faster
- average CT attenuation [2]: 900-1100
- level of CT attenuation in CT images of degraded and undegraded plugs [3]: high levels of CT attenuation
- relation of CT attenuation to GAG content [3]: directly proportional
- sensitivity to changes in cartilage GAG content relative to iothalamate (slope of regression line) [3]: 5.3 ×
- variation in cartilage GAG accounted for by variation in CT attenuation [3]: 79%
- slope of linear regression, average CT intensity vs GAG content [3]: 13758
- sensitivity to distribution of GAG in cartilage surface [4]: sensitive to the variable distribution of GAG throughout the cartilage surface
